The numbers were not newly measured in patent US20090082738A1, “Natural Anti-Inflammatory Agents for Reducing Pain” (priority 2007, published 2009), which cites them from elsewhere.

The subject of data set [1] is moderate or severe knee arthritis population. The conditions noted are these: 1500 mg of glucosamine.

The structures appear in SMILES notation.

For `C/C=C(/C=O)[C@@H](CC=O)CC(=O)OCCc1ccc(O)cc1` [Oleocanthal], the “inhibition of cyclooxygenase (COX)” value with cyclooxygenase (COX) is reported as “non-selective inhibitor of cyclooxygenase (COX)”.

Turning to `N[C@H]1C(O)O[C@H](CO)[C@@H](O)[C@@H]1O` (some centres unmarked) [glucosamine], the “clinical efficacy compared with Celebrex” value in data set [1] was “superior to the prescription medication Celebrex”.
